Earlier results on one compound are cited in publication PMC2749889 (Journal of neurochemistry, 2009).

In general, IC50 refers to the concentration that gives 50% inhibition.

Data set [1] has as its system α6 ^*. Conditions: ref Klink et al. 2001; Mogg et al. 2002.
Data set [2] relates to α9 homomers. Conditions: read-out: IC50, α9 homomers; ref Verbitsky et al. 2000.

As to `CCN1C[C@]2(COC(=O)c3ccccc3N3C(=O)C[C@H](C)C3=O)CC[C@H](OC)[C@@]34[C@@H]5C[C@H]6[C@H](OC)[C@@H]5[C@](O)(C[C@@H]6OC)[C@@](O)([C@@H](OC)[C@H]23)[C@@H]14` [MLA, Methyllycaconitine], in data set [1], the “block of α6 ^*” value is listed as “blocks”. For the same compound, the IC50 in data set [2] was 1.1 nM.
